These results are taken from article PMC9186412, “Rational Framework for the Design of Trp- and Arg-Rich Peptide Antibiotics Against Multidrug-Resistant Bacteria” (Frontiers in Microbiology, 2022).

The subject of assay [1] is P. aeruginosa strain PA239. As to the kind of experiment: Bactericidal assay (MBC) in FBS-containing medium FMP. It is filed as cell-based. The note with it: within 3h of incubation. The procedure: (§1) Bacteria were incubated with each of the indicated peptides in MHB2. […] To assess bactericidal properties of the peptide, the assay was modified by using 15% fetal bovine serum (FBS, for a more physiologically relevant test condition) mixed with 25% MHB2 and 60% PBS. […] Data were analyzed using GraphPad Prism software.

For the next assay, the system named is E. Faecium. The experiment in a line: microbe, parasite or virus in culture. It is filed as cell-based, Enterococcus Facium. The procedure: Bacterial clinical isolates, used for initial screening and in previous studies ([Deslouches et al., 2013]; [Lin et al., 2018]), were anonymously provided by the clinical microbiology laboratory of the University of Pittsburgh medical Center. The panel used for secondary screening was from [CDC (2013)] (Supplementary Table 3), with resistance profiles data. Bacteria are stored in lock-secured –80°C freezer and typically retrieved by obtaining single colonies on agar plates prior for subsequent liquid broth cultures. Suspensions of test bacteria were prepared from log phase of growth by diluting overnight cultures at 1:100 with fresh cation-adjusted MHB (MHB2, Millipore Sigma, United States) and incubating for additional 3–4 h. Bacteria were spun at 3,000 × g for 10 min and the pellet resuspended in test condition media (Millipore Sigma, United States) to determine bacterial turbidity using a Den-1B densitometer (Grant Instruments, United States) at 0.5 McFarland (unit of bacterial density) corresponding to […].
To examine antibacterial activity, we used minor modifications of a standard growth inhibition assay endorsed by the Clinical and Laboratory Standards Institute (CLSI), as previously described ([Deslouches et al., 2013]). Bacteria were incubated with each of the indicated peptides in MHB2. The bacterial cells were kept in an incubator for 18 h at 37°C, which is linked to a robotic system that feeds a plate reader every hour with one of 8 × 96-well plates. This set-up allows the collection of growth kinetic data at A 570 (absorbance at 570 nm) to examine growth inhibition in real time (BioTek Instruments, United States). […] The assays are typically repeated a second time. If the MIC is different, a third experimental trial is performed to confirm the MIC. To assess bactericidal properties of the peptide, the assay was modified by using 15% fetal bovine serum (FBS, for a more physiologically relevant test condition) mixed with 25% MHB2 and 60% PBS. Bacterial cells (colony forming unit/mL or CFU/mL) were enumerated after incubating treated bacteria for 3 h and plating serially diluted samples on broth agar medium at 37°C overnight. Minimum bactericidal concentration (MBC) was determined as the peptide concentration at which complete bacterial killing was observed. […] Data were analyzed using GraphPad Prism software.

Assay [2] relates to ESKAPE pathogens and Escherichia coli. The following applies: initial test strains; MHB2. How it is done:
as §1

SMILES strings stand for the structures. Where a SMILES comes first, the peptide text is derived from it. Bridges are numbered along the chain shown (N, C = ends). [ ]: non-standard residue; d: D form. The star is where a group is joined. X1 = CC[C@H](C)CCCCC(=O)*; Dab = NCC[C@H](N)C(=O)O Where only a bound is given, the exact number is not on record here.

For `NC[C@H]1O[C@H](O[C@H]2[C@H](O)[C@@H](O[C@H]3O[C@H](CO)[C@@H](O)[C@H](N)[C@H]3O)[C@H](N)C[C@@H]2N)[C@H](N)C[C@@H]1O` [Tobramycin, reference compound], the bacterial killing result in assay [1] is “did not display any substantial bacterial killing”.

In the case of `CC[C@H](C)CCCCC(=O)N[C@@H](CCN)C(=O)N[C@H](C(=O)N[C@@H](CCN)C(=O)N[C@H]1CCNC(=O)[C@H]([C@@H](C)O)NC(=O)[C@H](CCN)NC(=O)[C@H](CCN)NC(=O)[C@H](CC(C)C)NC(=O)[C@@H](CC(C)C)NC(=O)[C@H](CCN)NC1=O)[C@@H](C)O` [Colistin, reference compound] (X1-[Dab]T[Dab][Dab][Dab][dL]L[Dab][Dab]T; lactam 4-C (inferred); N-terminus assumed), the MIC with E. Faecium (strain EF500, CDC clinical strain, confirmed by a second or third experimental trial) is listed as greater than 16 µM; in the assay with E. Faecium (strain EF671, CDC clinical strain, confirmed by a second or third experimental trial) it was greater than 16 µM; in the assay with E. Faecium (strain EF672, CDC clinical strain, confirmed by a second or third experimental trial), greater than 16 µM; against E. Faecium (strain EF673, CDC clinical strain, confirmed by a second or third experimental trial), greater than 16 µM; against E. Faecium (strain EF23614, UPMC, MHB2, 18 h, 37°C) it was greater than 16 µM; in the assay on E. Faecium (strain EF26215, UPMC, MHB2, 18 h, 37°C) it was greater than 16 µM. Further, the MIC against E. Faecium (strain EF26692, UPMC, MHB2, 18 h, 37°C) is listed as greater than 16 µM. For the same compound, the “activity against the GPB strains” value in assay [2] is “inactive”.
